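Following 48 hours of exposure in 96-well plates, responses at five concentrations were used to interpolate endpoints linearly. GI50: concentration for 50% inhibition of growth.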 Activity calls are given as the source filed them. Rule as the data show it: active = GI50 up to about 1.1 µM and inactive = higher.
Key:
Assay in all cases: inhibition of tumour cell growth, NCI panel, 48 h
[1] = tested on: NCI/ADR-RES
[2] = tested on: 786-0
[3] = tested on: SK-OV-3
[4] = tested on: SK-MEL-2
[5] = tested on: NCI-H226
[6] = tested on: Hs-578T
[7] = tested on: A549
[8] = tested on: T47D
[9] = tested on: BT-549
[10] = tested on: HL-60
[11] = tested on: OVCAR-4
[12] = tested on: UACC-62
[13] = tested on: SK-MEL-5
[14] = tested on: SNB-75
[15] = tested on: M14
[16] = tested on: HT-29
[17] = tested on: IGROV-1
[18] = tested on: NCI-H23
[19] = tested on: NCI-H460
[20] = tested on: CAKI-1
[21] = tested on: ACHN
[22] = tested on: KM12
[23] = tested on: MDA-MB-231
[24] = tested on: OVCAR-3
[25] = tested on: HCT-116
[26] = tested on: LOX IMVI
[27] = tested on: A498
[28] = tested on: RPMI-8226
[29] = tested on: K562
[30] = tested on: UO-31
[31] = tested on: SF-268
[32] = tested on: MDA-N
[33] = tested on: PC-3
[34] = tested on: HCC 2998
[35] = tested on: MCF7
[36] = tested on: SW-620
[37] = tested on: NCI-H522
[38] = tested on: SN12C
[39] = tested on: RXF 393
[40] = tested on: HCT-15
[41] = tested on: MDA-MB-435
[42] = tested on: CCRF-CEM
[43] = tested on: EKVX
[44] = tested on: U-251
[45] = tested on: HOP-62
[46] = tested on: MOLT-4
[47] = tested on: DU-145
[48] = tested on: SF-295
[49] = tested on: SNB-19
[50] = tested on: Malme-3M
[51] = tested on: OVCAR-8
[52] = tested on: SR
[53] = tested on: SK-MEL-28
[54] = tested on: OVCAR-5
[55] = tested on: COLO 205
[56] = tested on: HOP-92
[57] = tested on: UACC-257
[58] = tested on: TK-10
[59] = tested on: SF-539

## Nc1ccc(I)cn1
[1]
  GI50: > 100 µM (inactive)
[2]
  GI50: > 100 µM (inactive)
[3]
  GI50: > 100 µM (inactive)
[4]
  GI50: > 100 µM (inactive)
[5]
  GI50: > 100 µM (inactive)
[6]
  GI50: > 100 µM (inactive)
[7]
  GI50: > 100 µM (inactive)
[8]
  GI50: > 100 µM (inactive)
[9]
  GI50: > 100 µM (inactive)
[10]
  GI50: > 100 µM (inactive)
[11]
  GI50: > 100 µM (inactive)
[12]
  GI50: > 100 µM (inactive)
[13]
  GI50: > 100 µM (inactive)
[14]
  GI50: > 100 µM (inactive)
[15]
  GI50: > 100 µM (inactive)
[16]
  GI50: > 100 µM (inactive)
[17]
  GI50: > 100 µM (inactive)
[18]
  GI50: > 100 µM (inactive)
[19]
  GI50: > 100 µM (inactive)
[20]
  GI50: > 100 µM (inactive)
[21]
  GI50: > 100 µM (inactive)
[22]
  GI50: > 100 µM (inactive)
[23]
  GI50: > 100 µM (inactive)
[24]
  GI50: > 100 µM (inactive)
[25]
  GI50: > 100 µM (inactive)
[26]
  GI50: > 100 µM (inactive)
[27]
  GI50: > 100 µM (inactive)
[28]
  GI50: > 100 µM (inactive)
[29]
  GI50: > 100 µM (inactive)
[30]
  GI50: > 100 µM (inactive)
[31]
  GI50: > 100 µM (inactive)
[32]
  GI50: > 100 µM (inactive)
[33]
  GI50: > 100 µM (inactive)
[34]
  GI50: > 100 µM (inactive)
[35]
  GI50: > 100 µM (inactive)
[36]
  GI50: > 100 µM (inactive)
[37]
  GI50: > 100 µM (inactive)
[38]
  GI50: > 100 µM (inactive)
[39]
  GI50: > 100 µM (inactive)
[40]
  GI50: > 100 µM
[41]
  GI50: > 100 µM (inactive)
[42]
  GI50: > 100 µM (inactive)
[43]
  GI50: > 100 µM (inactive)
[44]
  GI50: > 100 µM (inactive)
[45]
  GI50: > 100 µM (inactive)
[46]
  GI50: > 100 µM (inactive)
[47]
  GI50: > 100 µM (inactive)
[48]
  GI50: > 100 µM (inactive)
[49]
  GI50: > 100 µM (inactive)
[50]
  GI50: > 100 µM (inactive)
[51]
  GI50: > 100 µM (inactive)
[52]
  GI50: > 100 µM (inactive)
[53]
  GI50: > 100 µM (inactive)
[54]
  GI50: > 100 µM (inactive)
[55]
  GI50: > 100 µM (inactive)

## CN(C)C(=O)CO/N=C1/C(=C2/C(=O)Nc3ccccc32)Nc2ccccc21
[1]
  GI50: > 100 µM (inactive)
[2]
  GI50: 64.7 µM (inactive)
[3]
  GI50: > 100 µM (inactive)
[4]
  GI50: > 100 µM (inactive)
[5]
  GI50: > 100 µM (inactive)
[6]
  GI50: > 100 µM (inactive)
[56]
  GI50: > 100 µM (inactive)
[7]
  GI50: > 100 µM (inactive)
[8]
  GI50: > 100 µM (inactive)
[9]
  GI50: 65.9 µM (inactive)
[10]
  GI50: > 100 µM (inactive)
[11]
  GI50: > 100 µM (inactive)
[12]
  GI50: > 100 µM (inactive)
[13]
  GI50: 37.3 µM (inactive)
[14]
  GI50: 30.4 µM (inactive)
[57]
  GI50: > 100 µM (inactive)
[15]
  GI50: 97.3 µM (inactive)
[16]
  GI50: > 100 µM (inactive)
[17]
  GI50: > 100 µM (inactive)
[18]
  GI50: > 100 µM (inactive)
[19]
  GI50: > 100 µM (inactive)
[20]
  GI50: 4.69 µM (inactive)
[21]
  GI50: > 100 µM (inactive)
[22]
  GI50: 0.032 µM (active)
[23]
  GI50: > 100 µM (inactive)
[24]
  GI50: > 100 µM (inactive)
[25]
  GI50: 94.8 µM (inactive)
[26]
  GI50: > 100 µM (inactive)
[28]
  GI50: > 100 µM (inactive)
[29]
  GI50: > 100 µM (inactive)
[30]
  GI50: > 100 µM (inactive)
[31]
  GI50: > 100 µM (inactive)
[58]
  GI50: 40.9 µM (inactive)
[32]
  GI50: > 100 µM (inactive)
[33]
  GI50: > 100 µM (inactive)
[34]
  GI50: > 100 µM (inactive)
[35]
  GI50: > 100 µM (inactive)
[36]
  GI50: > 100 µM (inactive)
[37]
  GI50: > 100 µM (inactive)
[38]
  GI50: > 100 µM (inactive)
[39]
  GI50: 17.7 µM (inactive)
[40]
  GI50: > 100 µM
[41]
  GI50: > 100 µM (inactive)
[42]
  GI50: > 100 µM (inactive)
[59]
  GI50: 39.3 µM (inactive)
[43]
  GI50: > 100 µM (inactive)
[44]
  GI50: 26.6 µM (inactive)
[45]
  GI50: 18.7 µM (inactive)
[46]
  GI50: > 100 µM (inactive)
[47]
  GI50: > 100 µM (inactive)
[48]
  GI50: 39.9 µM (inactive)
[49]
  GI50: > 100 µM (inactive)
[50]
  GI50: > 100 µM (inactive)
[51]
  GI50: > 100 µM (inactive)
[52]
  GI50: 88.7 µM (inactive)
[53]
  GI50: > 100 µM (inactive)
[54]
  GI50: > 100 µM (inactive)
[55]
  GI50: 31.6 µM (inactive)

— ChEMBL document CHEMBL1201862, “PubChem BioAssay data set” (2004)
